Measured values taken from patent US20120122079A1, “INFECTION DETECTION METHODS AND SYSTEMS AND RELATED COMPOUNDS AND COMPOSITIONS” (priority 2010, published 2012).

Test system: viral neuraminidase
Format: biochemical, influenza
Details: pH 5.5

Row | Molecule | whether the substrate was cleaved and odorant released (decrease of the substrate signal and appearance of the cleavage products signal)
1 | CC(=O)NC1C(O)CC(OCC2(C)CC2CC2CC3CC3(C)C2(C)C)(C(=O)O)OC1CC(O)CO [javanol, Sodium ([(1R,2S)-1-methyl-2-[[(1R,3S,5S)-1,2,2-trimethyl-3-bicyclo[3.1.0]hexanyl]methyl]cyclopropyl]methyl-5-acetamido-3,5-dideoxy-α-D-glycero-D-galacto-2-nonulopyranoside)onate] | substrate is still present
2 | Sodium (4-(4-hydroxy-3-methoxyphenyl)butan-2-one-5-acetamido-3,5-dideoxy-α-D-glycero-D-galacto-2-nonulopyranoside)onate [zingerone] | significant loss of peak
